Assay results taken from article PMC6368403, “Identification of a bilirubin receptor that may mediate a component of cholestatic itch” (eLife, 2019).
Several values for one entry are separate records, joined by “and”; a condition that tells them apart may be missing. Identical values can stand only once.

How the values were obtained:
[1] = test system: murine peritoneal mast cells; test: Mouse peritoneal mast cell histamine release assay; type: cell-based; details: 100 µM bilirubin
Procedure: Adult male mice 8–12 weeks of age were sacrificed through CO2 inhalation. A total of 25 mL of mast cell dissociation media (MCDM; HBSS with 3% fetal bovine serum and 10 mM HEPES, pH 7.2) was chilled on ice before being used to make two sequential peritoneal lavages. Lavages were combined and spun at 200 g. […] Mast cells were recovered in the pellet. Mast cells were re-suspended in DMEM with 10% fetal bovine serum (FBS) and 25 ng/mL recombinant mouse stem cell factor (Sigma). Mast cells were purified as described and allowed to recover for 2 hr at 37°C. Cells were then seeded in 96-well plates coated with […] fibronectin at 300 cells/well. Plates were incubated at 37°C for 45 min before assay. For the assay, all compounds tested were diluted in CIB. Five minutes after compound addition, supernatant was aspirated and frozen at −80°C until histamine levels were determined with an HTRF histamine assay kit (Cisbio Assays) according to the manufacturer’s instructions.

MRGPRA1 = target: T1, MRGPRA1 (Mus musculus, UniProt Q91WW5); test: [35S]GTPγS binding to MRGPRA1 membrane complexes; type: biochemical; details: 50 μM bilirubin
T1 construct: expressed in transfected cells
T1 sequence (Q91WW5 1-304): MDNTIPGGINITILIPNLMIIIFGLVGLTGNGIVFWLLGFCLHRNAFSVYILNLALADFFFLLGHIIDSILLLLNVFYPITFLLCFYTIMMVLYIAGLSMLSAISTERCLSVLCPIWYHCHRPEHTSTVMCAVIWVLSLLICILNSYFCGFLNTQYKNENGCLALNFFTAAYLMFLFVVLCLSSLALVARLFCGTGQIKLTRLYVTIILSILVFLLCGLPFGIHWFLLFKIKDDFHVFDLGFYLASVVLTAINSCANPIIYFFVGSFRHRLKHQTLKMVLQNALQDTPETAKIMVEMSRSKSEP
Procedure: (§1) MRGPR activation was determined by measuring binding of a radiolabelled and non-hydrolyzable form of GTP, [^35S]guanosine-5’-(γ-thio)triphosphate ([^35S]GTPγS) as previously described ([Vasavda et al., 2017]). Briefly, 10 µg of crude membrane fractions were diluted into 175 µL assay buffer (50 mM HEPES, 5 mM MgCl2, 100 mM NaCl, 1 mM EDTA, 0.1% […]) supplemented with 10 µM GDP and incubated at room temperature for 5 min. Membranes were then incubated an additional 1 min in a final volume of 199 μL assay buffer supplemented with 50 μM bilirubin. Samples were then brought to 200 μL with the addition of 10 nM [^35S]GTPγS. Samples were incubated for 2 hr at 4°C with gentle agitation. The experiment was terminated by rapid filtration onto GF/B filters and washed three times with wash buffer (50 mM Tris-HCl, 5 mM MgCl2, and 50 mM NaCl at pH 7.4). Filters were then immersed in scintillation cocktail and counted. Nonspecific binding was determined by competition with 10 μM unlabelled GTPγS. GTPγS binding assays were performed as two independent experiments, in triplicate.

MRGPRX4 = target: T2, MRGPRX4 (Homo sapiens, UniProt Q96LA9); test: [35S]GTPγS binding to MRGPRX4 membrane complexes; type: biochemical; details: 50 μM bilirubin
T2 construct: expressed in transfected cells
Procedure: as §1

DRG neurons = test: Ca2+ imaging of cultured DRG neurons; type: cell-based, mouse; details: for Percent activated neurons: 50 µM bilirubin (Fig 3H)
Procedure: All cultured cells were maintained in DMEM supplemented with 10% FBS and 1% Penicillin/Streptomycin at 37°C, 5% CO2. […] Cells were imaged in calcium imaging buffer (CIB; 10 mM HEPES, 1.2 mM NaHCO3, 130 mM NaCl, 3 mM KCl, 2.5 mM CaCl2, 0.6 mM MgCl2, 20 mM glucose, and 20 mM sucrose at pH 7.4 and 290–300 mOsm). To monitor changes in intracellular [Ca^2+] ([Ca^2+]i), cells were loaded with either Fura 2-AM (HEK293 cells) or Fluo 4-AM (DRG neurons and mast cells) for 30 min in the dark at 37°C in CIB just prior to imaging. With Fura 2-AM, emission at 510 nm was monitored from excitation at both 340 nm and 380 nm. With Fluo 4-AM, emission at 520 nm was monitored from excitation at 488 nm. Cells were identified as responding if the intracellular [Ca^2+] rose by either 50% compared to baseline or 50% compared to the [Ca^2+]i change assayed during addition of 50 mM KCl (neurons only). Damaged, detached, high-baseline, and motion-activated cells were excluded from analysis.
DRGs were incubated with Fluo-4 AM 24 hr after dissociation (native genotype) or 48 hr after dissociation (virally transduced). Unless otherwise noted, cells were imaged for 20 seconds to establish a baseline before compounds were added. After 30 s, a 2 min wash was applied before addition of another substances. At the end of every imaging trial, 50 mM KCl was added as a positive control. […] For ruthenium red inhibitor experiments, neurons were incubated with 10 µM ruthenium red for 5 min prior to imaging. Percentage activated was determined as earlier described.
DRG neurons from all spinal levels were collected in cold DH10 media (90% Dulbecco’s modified Eagle’s medium (DMEM)/F-12, 10% FBS, penicillin (100 U/mL), and streptomycin (100 μg/mL)). DRGs were digested with a dispase (5 mg/ml)/collagenase type I (1 mg/ml) enzyme mixture at 37°C for 45 min. After trituration, cells were spun at 300 g and re-suspended in DH10 before being plated on glass coverslips coated with poly-D-lysine (0.5 mg/ml) and laminin (10 μg/ml, Invitrogen). DRGs were cultured with DH10 supplemented with 50 ng/mL NGF at 37°C.

T2 sequence (Q96LA9 whole entry): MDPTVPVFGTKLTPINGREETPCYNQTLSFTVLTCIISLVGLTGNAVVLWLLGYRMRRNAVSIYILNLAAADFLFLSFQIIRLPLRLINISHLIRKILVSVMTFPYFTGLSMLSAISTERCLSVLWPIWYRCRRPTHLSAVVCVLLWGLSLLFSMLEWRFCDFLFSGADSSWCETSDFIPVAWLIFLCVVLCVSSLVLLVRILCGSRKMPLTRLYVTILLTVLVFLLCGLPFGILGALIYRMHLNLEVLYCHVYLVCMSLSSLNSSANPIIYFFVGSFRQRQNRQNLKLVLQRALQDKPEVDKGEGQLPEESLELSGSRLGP

GTP binding to MRGPRA1 membrane complexes (MRGPRA1): increased GTP binding
[35S]GTPγS binding (MRGPRA1; MRGPRA1 membrane complexes (Fig 2K)): 197 and 184 and 159
GTP binding to MRGPRX4 membrane complexes (MRGPRX4): increased GTP binding
[35S]GTPγS binding (MRGPRX4; MRGPRX4 membrane complexes (Fig 2K)): 175 and 229 and 223
Compound: C=CC1=C(C)/C(=C/c2[nH]c(Cc3[nH]c(/C=C4\NC(=O)C(C)=C4C=C)c(C)c3CCC(=O)O)c(CCC(=O)O)c2C)NC1=O [bilirubin, bilirubin IXα]
Mast cell histamine release [1]: did not elicit a calcium response or induce appreciable histamine release
Percent activated neurons (DRG neurons; A1 KO DRG): 1.8%
Percent activated neurons (DRG neurons; Mrgpr-cluster KO DRG): 1.9%
Percent activated A3+ neurons (DRG neurons; Tg(Mrgpra3-Cre);lsl-tdTomato neurons, 50 µM bilirubin (Fig 4D)): 51.4%
Percent activated neurons (DRG neurons; WT DRG): approximately 5%
Percent activated neurons (DRG neurons; WT DRG, listed as Bilirubin): 5.43%
